Results from US20260109690A1, “HDAC6 INHIBITORS AND METHOD OF THEIR USE” (Baerenkraft Therapeutics, LLC., priority 2024, published 2026).

Key:
[1] = molecular target: T1, HDAC6 (Homo sapiens, UniProt Q9UBN7); assay: Biochemical HDAC6 inhibitory activity assay; settings: read-out: HDAC6 IC50
T1 sequence (Q9UBN7 1-1215): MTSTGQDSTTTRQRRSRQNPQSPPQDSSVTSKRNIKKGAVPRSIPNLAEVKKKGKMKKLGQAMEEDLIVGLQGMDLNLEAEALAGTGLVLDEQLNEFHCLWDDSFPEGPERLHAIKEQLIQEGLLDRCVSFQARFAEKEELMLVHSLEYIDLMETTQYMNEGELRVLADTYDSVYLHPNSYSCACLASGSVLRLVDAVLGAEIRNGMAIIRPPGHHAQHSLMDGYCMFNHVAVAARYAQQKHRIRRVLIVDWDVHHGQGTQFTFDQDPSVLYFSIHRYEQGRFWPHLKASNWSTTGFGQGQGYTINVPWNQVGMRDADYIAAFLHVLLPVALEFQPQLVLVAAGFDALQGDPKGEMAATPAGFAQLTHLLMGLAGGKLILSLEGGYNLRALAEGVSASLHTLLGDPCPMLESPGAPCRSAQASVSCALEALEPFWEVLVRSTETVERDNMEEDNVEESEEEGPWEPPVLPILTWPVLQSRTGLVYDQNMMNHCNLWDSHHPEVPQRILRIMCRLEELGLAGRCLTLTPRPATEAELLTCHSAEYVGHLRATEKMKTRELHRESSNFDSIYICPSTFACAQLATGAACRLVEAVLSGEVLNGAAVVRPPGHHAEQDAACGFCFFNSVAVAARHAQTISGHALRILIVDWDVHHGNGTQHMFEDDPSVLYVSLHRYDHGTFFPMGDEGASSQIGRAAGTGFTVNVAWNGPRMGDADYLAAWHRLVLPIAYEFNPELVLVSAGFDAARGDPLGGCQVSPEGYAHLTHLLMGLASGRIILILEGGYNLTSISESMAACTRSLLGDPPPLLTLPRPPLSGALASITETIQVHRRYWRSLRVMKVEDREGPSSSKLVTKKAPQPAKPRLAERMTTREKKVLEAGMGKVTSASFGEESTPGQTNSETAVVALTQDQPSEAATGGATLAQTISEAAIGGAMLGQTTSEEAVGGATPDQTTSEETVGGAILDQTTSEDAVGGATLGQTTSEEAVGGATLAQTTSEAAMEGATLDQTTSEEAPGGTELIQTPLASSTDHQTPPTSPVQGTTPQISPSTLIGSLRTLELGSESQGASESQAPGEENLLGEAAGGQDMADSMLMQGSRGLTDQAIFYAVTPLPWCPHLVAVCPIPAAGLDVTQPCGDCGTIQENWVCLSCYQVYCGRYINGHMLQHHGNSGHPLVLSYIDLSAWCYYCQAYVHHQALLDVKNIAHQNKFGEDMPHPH

[2] = tested on: acetyl-α-tubulin in SH-SY5Y neuroblastoma cells; assay: Western blot of acetylated alpha-tubulin in SH-SY5Y neuroblastoma cells; assay type: cell-based; settings: 1 μM and 10 μM, 24 hours
Method: SH-SY5Y neuroblastoma cells were seeded at 1,000,000 cells/well of three 6-well plates and incubated for 24 hours. Cells were treated with 2 control and experimental HDAC6 inhibitors at 1 μM and 10 μM for 24-hours. Following treatment, cells were lysed, and proteins extracted for western blot. Proteins were separated by gel electrophoresis and transferred to nitrocellulose membranes. Membranes were blocked and probed with primary Abs overnight.
acetyl-α-tubulin (Lys40)(D20G3); Cell Signaling Technologies, #5335S
GAPDH; Millipore Sigma, #MAB374
Membranes were probed with secondary Abs for 1 hour and then the blots were imaged using the iBright 1500 (ThermoFisher)

[3] = molecular target: T2, HDAC10 (Homo sapiens, UniProt Q969S8); assay: HDAC selectivity panel: HDAC10; assay type: biochemical
T2 sequence (Q969S8 1-669): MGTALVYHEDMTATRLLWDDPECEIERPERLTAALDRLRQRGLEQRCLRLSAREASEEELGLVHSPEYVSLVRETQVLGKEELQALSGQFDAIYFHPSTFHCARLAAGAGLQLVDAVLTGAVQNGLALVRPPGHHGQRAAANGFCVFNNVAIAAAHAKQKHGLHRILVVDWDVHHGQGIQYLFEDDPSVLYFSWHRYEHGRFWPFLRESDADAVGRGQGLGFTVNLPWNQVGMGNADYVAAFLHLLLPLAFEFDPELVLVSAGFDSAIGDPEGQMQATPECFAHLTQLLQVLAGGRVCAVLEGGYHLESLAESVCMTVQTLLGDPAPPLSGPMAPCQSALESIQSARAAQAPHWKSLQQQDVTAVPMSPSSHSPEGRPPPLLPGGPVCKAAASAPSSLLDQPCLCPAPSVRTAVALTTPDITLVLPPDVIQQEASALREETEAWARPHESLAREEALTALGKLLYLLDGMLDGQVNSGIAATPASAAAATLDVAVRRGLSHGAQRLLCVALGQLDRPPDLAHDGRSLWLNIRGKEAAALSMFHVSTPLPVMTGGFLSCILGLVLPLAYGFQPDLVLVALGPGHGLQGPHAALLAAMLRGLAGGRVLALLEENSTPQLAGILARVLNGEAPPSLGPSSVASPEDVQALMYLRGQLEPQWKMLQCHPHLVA

[4] = tested on: acetyl-α-tubulin in SH-SY5Y neuroblastoma cells; assay: ICC dose response of acetylated alpha-tubulin in SH-SY5Y neuroblastoma cells; assay type: cell-based; settings: Homo sapiens, 24 h, read-out: IC50 (acetyl-α-tubulin average fluorescence intensity)
Method: Cell Seeding: Seeded at 2,000 cells/well in 384-well plates 24-hours prior to compound treatment
Compound Treatment: 24-hour
HDAC6 inhibitor compounds tested (1 control and 6 experimental)
9-point dose-response curves for all compounds, starting at 30 μM with 3-fold serial dilutions
4 technical replicate wells per condition tested
Cells were seeded in 90 μL media. 10 μL of 10× compound solutions added to 90 μL media for 24-hours
Fixation: 4% PFA for 15 minutes (after removing all media and washing with DPBS+0.1% Tween-20)
Permeabilization: 0.1% Triton X-100 for 20 minutes
Primary antibody: acetyl-α-tubulin (Lys40/D20G3; Cell Signaling Technologies, #5335S) 1:1000 dilution in DPBS+5% goat serum+0.1% Tween-20, 1 hour at room temp on orbital shaker
Secondary antibody: Goat anti-Rabbit IgG (H+L) Highly Cross-Adsorbed Secondary Antibody, Alexa Fluor™ Plus 488, Catalog #A32731, 1:1000 dilution+Hoechst 33342, 1:10,000 dilution in DPBS+5% goat serum+0.1% Tween-20, 1 hour at room temp on orbital shaker
High-content imaging system: Image Xpress Micro Confocal from Molecular Devices […]
Integrated fluorescence intensity of acetyl-α-tubulin was calculated using an automated image-analysis algorithm in Meta Xpress software
Average intensity per cell was calculated by dividing the integrated fluorescence intensity by the number of nuclei. […]

[5] = molecular target: HDAC1 (Homo sapiens, UniProt Q13547); assay: HDAC selectivity panel: HDAC1; assay type: biochemical
Sequence of HDAC1 (Q13547 whole entry, species assumed): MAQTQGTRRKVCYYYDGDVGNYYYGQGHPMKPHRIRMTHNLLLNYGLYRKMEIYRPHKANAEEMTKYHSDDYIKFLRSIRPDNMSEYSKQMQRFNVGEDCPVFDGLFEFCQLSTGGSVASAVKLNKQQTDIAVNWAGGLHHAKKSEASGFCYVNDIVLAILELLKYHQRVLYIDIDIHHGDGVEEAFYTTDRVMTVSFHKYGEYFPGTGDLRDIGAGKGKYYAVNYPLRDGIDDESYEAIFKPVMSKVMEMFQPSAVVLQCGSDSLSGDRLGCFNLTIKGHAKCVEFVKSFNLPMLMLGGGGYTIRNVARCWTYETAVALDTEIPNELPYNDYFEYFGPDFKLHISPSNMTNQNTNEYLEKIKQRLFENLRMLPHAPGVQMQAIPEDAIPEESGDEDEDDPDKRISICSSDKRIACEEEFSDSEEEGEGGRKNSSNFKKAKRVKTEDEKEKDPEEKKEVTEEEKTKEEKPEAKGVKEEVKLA

[6] = molecular target: HDAC3 (Homo sapiens, UniProt O15379); assay: HDAC selectivity panel: HDAC3; assay type: biochemical
Sequence of HDAC3 (O15379 whole entry, species assumed): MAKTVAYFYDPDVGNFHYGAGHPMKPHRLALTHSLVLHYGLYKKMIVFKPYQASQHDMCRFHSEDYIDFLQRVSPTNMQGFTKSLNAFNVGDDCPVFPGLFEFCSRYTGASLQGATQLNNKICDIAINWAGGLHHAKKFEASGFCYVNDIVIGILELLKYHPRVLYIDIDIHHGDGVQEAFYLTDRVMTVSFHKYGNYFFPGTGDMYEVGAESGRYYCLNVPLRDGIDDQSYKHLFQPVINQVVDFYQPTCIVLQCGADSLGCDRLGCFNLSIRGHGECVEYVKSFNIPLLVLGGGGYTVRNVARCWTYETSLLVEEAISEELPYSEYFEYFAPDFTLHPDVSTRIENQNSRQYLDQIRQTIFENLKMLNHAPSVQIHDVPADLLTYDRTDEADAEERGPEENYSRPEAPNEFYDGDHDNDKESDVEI
Sequence of HDAC3 (Q9Y618 395-489 partner limits assumed, species assumed): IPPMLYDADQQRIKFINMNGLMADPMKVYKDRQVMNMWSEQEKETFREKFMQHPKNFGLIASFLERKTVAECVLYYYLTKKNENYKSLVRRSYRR

[7] = molecular target: T3, HDAC8 (Homo sapiens, UniProt Q9BY41); assay: HDAC selectivity panel: HDAC8; assay type: biochemical
T3 sequence (Q9BY41 1-377): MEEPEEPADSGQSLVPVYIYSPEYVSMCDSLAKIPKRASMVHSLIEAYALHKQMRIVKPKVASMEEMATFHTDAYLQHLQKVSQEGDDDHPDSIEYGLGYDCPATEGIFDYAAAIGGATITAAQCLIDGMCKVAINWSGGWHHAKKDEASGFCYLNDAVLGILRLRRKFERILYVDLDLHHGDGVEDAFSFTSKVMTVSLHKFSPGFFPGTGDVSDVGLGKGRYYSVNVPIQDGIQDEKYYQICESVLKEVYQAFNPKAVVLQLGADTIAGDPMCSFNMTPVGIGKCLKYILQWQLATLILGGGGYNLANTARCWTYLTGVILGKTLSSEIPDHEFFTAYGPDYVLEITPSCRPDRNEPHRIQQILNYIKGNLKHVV

[8] = molecular target: T4, HDAC11 (Homo sapiens, UniProt Q96DB2); assay: HDAC selectivity panel: HDAC11; assay type: biochemical
T4 sequence (Q96DB2 1-347): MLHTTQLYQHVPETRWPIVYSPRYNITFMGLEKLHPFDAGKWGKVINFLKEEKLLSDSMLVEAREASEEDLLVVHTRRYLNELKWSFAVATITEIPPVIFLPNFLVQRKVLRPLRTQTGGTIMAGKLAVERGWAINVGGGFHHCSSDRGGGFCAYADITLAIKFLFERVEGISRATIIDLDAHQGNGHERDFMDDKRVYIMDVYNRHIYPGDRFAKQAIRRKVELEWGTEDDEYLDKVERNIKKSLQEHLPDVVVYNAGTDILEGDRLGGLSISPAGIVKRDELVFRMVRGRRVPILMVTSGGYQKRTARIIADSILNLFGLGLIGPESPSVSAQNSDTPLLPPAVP

IC50 [1]	SMILES	acetylation of α-tubulin (Western blot) [2]	further results
< 1 µM	O=C(NO)c1ccc(-c2ccnc(N3CCC(F)(F)CC3)n2)cc1 [Compound I-27, 4-(2-(4,4-difluoropiperidin-1-yl)pyrimidin-4-yl)-N-hydroxybenzamide]	induce acetylation of α-tubulin in SH-SY5Y neuroblastoma cells in a dose-dependent manner	–
< 1 µM	O=C1NCC2(CCN(c3nccc(-c4ccc(C(=O)NO)cc4)n3)CC2)O1 [Compound I-26, N-hydroxy-4-(2-(2-oxo-1-oxa-3,8-diazaspiro[4.5]decan-8-yl)pyrimidin-4-yl)benzamide]	induce acetylation of α-tubulin in SH-SY5Y neuroblastoma cells in a dose-dependent manner	–
< 1 µM	O=C(NO)c1ccc(-c2ccnc(Nc3ccc(CN4CCN(C5COC5)CC4)c(F)c3)n2)cc1 [Compound I-9, 4-(2-((3-fluoro-4-((4-(oxetan-3-yl)piperazin-1-yl)methyl)phenyl)amino)pyrimidin-4-yl)-N-hydroxybenzamide]	induce acetylation of α-tubulin in SH-SY5Y neuroblastoma cells in a dose-dependent manner	–
–	Cn1cc(CNCC2CCN(c3ncc(C(=O)NO)cn3)CC2)c2ccccc21 [Quisinostat, reference compound]	–	IC50 [3]: 0.00837 µM
–	O=C(CCCCCCNC(=O)c1cnc(N(c2ccccc2)c2ccccc2)nc1)NO [ACY-1215, ricolinostat, reference compound]	–	IC50 [4]: 1.78 µM
< 1 µM	O=C(NO)c1ccc(-c2ccnc(N3CCC4(CC3)COC4)n2)cc1 [Compound I-25, 4-(2-(2-oxa-7-azaspiro[3.5]nonan-7-yl)pyrimidin-4-yl)-N-hydroxybenzamide]	induce acetylation of α-tubulin in SH-SY5Y neuroblastoma cells in a dose-dependent manner	–
< 1 µM	CC1CN(C(=O)c2ccc(Nc3nccc(-c4ccc(C(=O)NO)cc4)n3)cc2F)CCO1 (stereo not drawn) [Compound I-5, 4-(2-((3-fluoro-4-(2-methylmorpholine-4-carbonyl)phenyl)amino)pyrimidin-4-yl)-N-hydroxybenzamide]	–	IC50 [5]: 1.64 µM; IC50 [6]: 1.36 µM; IC50 [7]: 0.162 µM; IC50 [8]: 0.782 µM; IC50 [3]: 0.0737 µM
< 1 µM	CN1CCN(Cc2ccc(Nc3nccc(-c4ccc(C(=O)NO)cc4)n3)cc2F)CC1 [Compound I-7, 4-(2-((3-fluoro-4-((4-methylpiperazin-1-yl)methyl)phenyl)amino)pyrimidin-4-yl)-N-hydroxybenzamide]	induce acetylation of α-tubulin in SH-SY5Y neuroblastoma cells in a dose-dependent manner	–
